Results published in US5919788A, “4-(1H-indol-1-yl)-1-piperidinyl derivatives” (Janssen Pharmaceutica, N.V., priority 1995, dated 1999).
Read-outs that look alike come from different tables or passages of the source.

Key:
Type in all cases: in vivo
dopamine = test: combined apomorphine, tryptamine, norepinephrine (ATN) test in rats: apomorphine (APO), central dopamine antagonism; conditions: Rattus norvegicus, preventing the symptoms elicited with apomorphine
serotonin = test: combined apomorphine, tryptamine, norepinephrine (ATN) test in rats: tryptamine (TRY), central (convulsions) and peripheral (hyperaemia) serotonin antagonism; conditions: Rattus norvegicus
norepinephrine = test: combined apomorphine, tryptamine, norepinephrine (ATN) test in rats: norepinephrine (NOR), peripheral α-adrenergic antagonism; conditions: Rattus norvegicus, read-out: NOR, ED50
[1] = preventing central symptoms (convulsions), central serotonin antagonism, read-out: TRY convulsions, ED50
[2] = preventing peripheral symptoms (hyperaemia), peripheral serotonin antagonism, read-out: TRY hyperaemia, ED50
[3] = preventing or delaying death upon administration of norepinephrine, rats, peripheral α-adrenergic antagonism

Compound | ED50 (dopamine) [mg/kg] | ED50 (serotonin; [1]) [mg/kg] | ED50 (serotonin; [2]) [mg/kg] | ED50 (norepinephrine) [mg/kg] | ED50 (norepinephrine; [3]) [mg/kg]
Cc1nc2n(c(=O)c1CCN1CCC(n3ccc4ccccc43)CC1)CCS2 [Compound 1, 2,3-dihydro-6[2-[4-(1H-indol-1-yl)-1-piperidinyl]ethyl]-7-methyl-5H-thiazolo[3,2-a]-pyrimidin-5-one] | 0.63 | 0.63 | 0.04 | > 10 | –
Cc1nc2n(c(=O)c1CCN1CCC(n3ccc4cc(F)ccc43)CC1)CCS2 [Compound 2] | 0.16 | 0.63 | 0.01 | 10 | –
Cc1nc2sccn2c(=O)c1CCN1CCC(n2ccc3ccccc32)CC1 [Compound 3, 6-[2-[4-(1H-indol-1-yl)-1-piperidinyl]ethyl]-7-methyl-5H-thiazolo[3,2-a]pyrimidin-5-one] | 0.16 | 0.16 | 0.01 | > 10 | –
Cc1nc2sccn2c(=O)c1CCN1CCC(n2ccc3cc(F)ccc32)CC1 [Compound 4, 6-[2-[4-(5-fluoro-1H-indol-1-yl)-1-piperidinyl]ethyl]-7-methyl-5H-thiazolo[3,2-a]-pyrimidin-5-one] | 0.04 | 0.04 | 0.01 | 2.5 | –
Cc1nc2sccn2c(=O)c1CCN1CCC(N2CCc3ccccc32)CC1 [Compound 5] | 0.08 | 0.31 | 0.02 | – | –
Cc1nc2scc(C)n2c(=O)c1CCN1CCC(n2ccc3ccccc32)CC1 [Compound 6, 6-[2-[4-(1H-indol-1-yl)-1-piperidinyl]ethyl]-3,7-dimethyl-5H-thiazolo[3,2-a]pyrimidin-5-one] | 0.16 | 0.16 | 0.01 | 10 | –
Cc1nn2c(=O)c(CCN3CCC(n4ccc5cc(F)ccc54)CC3)c(C)nc2s1 [Compound 8, 6-[2-[4-(5-fluoro-1H-indol-1-yl)-1-piperidinyl]-ethyl]-2,7-dimethyl-5H-1,3,4-thiadiazolo[3,2-a]pyrimidin-5-one] | 0.63 | 0.63 | 0.04 | 10 | –
Cc1cc2nc(C)c(CCN3CCC(n4ccc5cc(F)ccc54)CC3)c(=O)n2o1 [Compound 10] | 0.63 | 0.16 | 0.0025 | 10 | –
Cc1nc2n(c(=O)c1CCN1CCC(n3ccc4cc(F)ccc43)CC1)CCCC2 [Compound 12, 3-[2-[4-(5-fluoro-1H-indol-1-yl)-1-piperidinyl]ethyl]-6,7,8,9-tetrahydro-2-methyl-4H-pyrido[1,2-a]pyrimidin-4-one] | 0.31 | 0.31 | 0.02 | > 10 | –
COC1CCCn2c1nc(C)c(CCN1CCC(n3ccc4cc(F)ccc43)CC1)c2=O (centres unmarked) [Compound 15] | 0.16 | 0.63 | 0.01 | 10 | –
Cc1nc2n(c(=O)c1CCN1CCC(n3ccc4ccccc43)CC1)CCCS2 [Compound 16] | 0.16 | 0.63 | 0.02 | 10 | –
Cc1nc2n(c(=O)c1CCN1CCC(n3ccc4cc(F)ccc43)CC1)CCCS2 [Compound 17] | 0.08 | 0.16 | 0.02 | – | 5
Cc1nc2ccccn2c(=O)c1CCN1CCC(n2ccc3cc(F)ccc32)CC1 [Compound 18] | 0.08 | 0.08 | 0.01 | – | 5
Cc1nc2c(C)cccn2c(=O)c1CCN1CCC(n2ccc3ccccc32)CC1 [Compound 19] | 0.63 | 2.5 | 0.63 | > 10 | –
Cc1nc2c(C)cccn2c(=O)c1CCN1CCC(n2ccc3cc(F)ccc32)CC1 [Compound 20] | 0.63 | 0.63 | 0.16 | > 10 | –
CNc1nc(C)c(CCN2CCC(n3ccc4cc(F)ccc43)CC2)c(=O)n1C [Compound 24, 5-[2-[4-(5-fluoro-1H-indol-1-yl)-1-piperidinyl]ethyl]-3,6-dimethyl-2-(methylamino)-4(3H)-pyrimidinone] | 0.63 | 0.16 | 0.01 | 10 | –
CCSc1nc(C)c(CCN2CCC(n3ccc4ccccc43)CC2)c(=O)n1C [Compound 25] | 0.63 | 2.5 | 0.16 | > 10 | –
O=C(O)/C=C/C(=O)O.O=c1[nH]c2ccccc2n1CCCN1CCC(n2ccc3cc(F)ccc32)CC1 [Compound 28, 1-[3-[4-(5-fluoro-1H-indol-1-yl)-1-piperidinyl]propyl]-1,3-dihydro-2H-benzimidazol-2-one (E)-2-butenedioate (1:1)] | – | 0.16 | 0.01 | > 10 | –
Cc1nc2n(c(=O)c1CCN1CCC(n3ccc4cc(F)ccc43)CC1)C(C)CCC2 (centres unmarked) [Compound 29] | 0.08 | 0.31 | 0.005 | – | 5
Cc1nc2n(c(=O)c1CCN1CCC(N3CCc4ccccc43)CC1)CCCC2 [Compound 31] | 1.25 | 1.25 | 0.31 | – | –
Cc1nc2n(c(=O)c1CCN1CCC(N3c4ccccc4CC3C)CC1)CCCC2 (centres unmarked) [Compound 34] | 5 | > 10 | ≤ 0.63 | – | –
